Measurements published in article PMC5889877, “Ex Vivo Cardiotoxicity of Antineoplastic Casiopeinas Is Mediated through Energetic Dysfunction and Triggered Mitochondrial-Dependent Apoptosis” (Oxidative Medicine and Cellular Longevity, 2018).
Like-named read-outs stand apart in the source and are kept apart here. Marks after values point to notes of the source that are not given here.

Columns and labels:
H9c2 cells = assay: Mitochondrial anion superoxide production, MitoSOX flow cytometry; format: cell-based; settings: for increase in MitoSOX mean intensity (anion superoxide production): H9c2, acute, Antimycin A 10 μg/mL, Doxo 5 μM
Description: (§5) Thiol groups in the adenine nucleotide translocase were measured by eosin 5-maleimide interaction (EMA) with cysteine residues susceptible to oxidative stress or oxidizing agents [21] and followed by SDS/PAGE electrophoresis. […] Experiments for anion superoxide production were performed in intact cardiomyoblasts using the fluorescent probe MitoSOX (Molecular Probes) in the flow cytometer. H9c2 cells were loaded with MitoSOX during 15 min at 37°C with a cell density of 100,000 cells/mL (final concentration of MitoSOX 5 μM). Afterwards, the cells were subjected to Cas III-Ea treatment (4 or 20 μM); DOXO (5 μM) and Antimycin A (10 μg/mL) were used as positive controls. Finally, the cells were washed and analyzed on a FACSCanto II (BD Biosciences). FACS data was analyzed using FlowJo version 10.0 (Tree Star).

isolated rat hearts [1] = assay: Langendorff-perfused isolated rat heart: mechanical performance (RPP, HR, ±dP/dt, cardiac efficiency); settings: for RPP reduction from baseline / t 0.5, time for half-inhibition of RPP: 5 μM; for decrease of cardiac efficiency (CE): at IC50 for RPP; for +dP/dt × 1000 (contraction rate) / Cardiac efficiency / −dP/dt × 1000 (relaxation rate): hearts treated at the IC50; for heart rate (HR) reduction: perfused at 5 μM; for IC50: read-out: IC50, half-maximal inhibitory concentration for RPP (heart contractile function)
Description: (§1) Male Wistar rats (250–300 g) were injected with heparin (10^3 U·kg^−1, i.p.) 20 minutes prior to anesthesia with pentobarbital (100 mg·kg^−1, i.p.). When bilateral corneal reflex was absent, the heart was excised through an abdominal approach. Then, the ascending aorta was visualized and cut and the heart was placed in a cardioplegic solution. To avoid ischemia, the time between cutting the diaphragm to placing the heart in the solution was less than 60 seconds. The hearts were mounted in accordance with the Langendorff model and perfused at a constant flow (12 ml·min^−1) with a Krebs-Henseleit buffer as previously described. A latex balloon connected to a pressure transducer filled with saline solution was inserted into the left ventricle after establishing autonomous contraction. The pulmonary artery was cannulated and connected to a closed chamber using a Clark-type oxygen electrode (Yellow Springs Instruments, Yellow Springs, Ohio) to measure myocardial oxygen consumption (MVO2) in the coronary effluent. The rate of MVO2 was calculated as the difference between the concentration in the K-H buffer before (100%) and after perfusion. Data Trax software (WPI, Sarasota, Florida) was used for continuous recording of the heart rate (HR), left ventricular pressure (LVP), MVO2, and maximum positive and negative derivative of left ventricular pressure (±dP/dt). The baseline was established during 10–15 minutes of K-H perfusion. Each concentration of Cas or Doxo remained in the heart for 30 min. Hearts in the control group were perfused with K-H buffer during the whole experimental time. Rate pressure product (RPP = HR × LVP) and cardiac efficiency ([…]) were calculated as previously reported.

[2] = biological target: T1, adenine nucleotide translocase (Rattus norvegicus, UniProt Q05962); assay: Thiol groups of adenine nucleotide translocase (eosin 5-maleimide); settings: mitochondria from hearts treated at IC50
T1 construct: adenine nucleotide translocase from mitochondria isolated from Cas-treated hearts; from tissue; host or cells: mitochondria isolated from Casiopeina-perfused rat hearts
T1 sequence (Q05962 1-298): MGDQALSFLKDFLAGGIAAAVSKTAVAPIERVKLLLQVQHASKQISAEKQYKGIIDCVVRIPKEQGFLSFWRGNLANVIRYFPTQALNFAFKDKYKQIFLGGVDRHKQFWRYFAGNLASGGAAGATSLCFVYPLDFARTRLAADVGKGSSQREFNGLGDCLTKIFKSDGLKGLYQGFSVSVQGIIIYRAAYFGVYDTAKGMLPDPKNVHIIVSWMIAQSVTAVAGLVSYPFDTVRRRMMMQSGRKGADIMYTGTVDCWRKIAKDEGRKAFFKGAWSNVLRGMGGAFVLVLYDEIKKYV
Description: as §5

[3] = tested on: adult rat ventricular myocytes; assay: Cardiomyocyte viability, Alamar Blue; format: cell-based; settings: 24 h treatment, read-out: LD50 (IC50) for cardiomyocyte viability
From the text: (§2) Ventricular cardiomyocytes were obtained from male Wistar rats (250–300 g) by digestion with collagenase type II as previously described. Cells were washed in Tyrode solution (mM): 130 NaCl, 5.4 KCl, 0.4 NaH2PO4, 0.5 MgCl2, 25 HEPES, and 5 glucose with pH 7.4. After isolation, cells were cultivated at a density of 3.2 × 10^3 viable cells/well in 96-well plates pretreated with laminin in M-199 medium supplemented in mM with 5 taurine, 5 creatine, 2 L-carnitine, 2.5 sodium pyruvate, and penicillin-streptomycin at 100 U·ml^−1 and 100 μg·ml^−1, respectively, at 37°C, with 5% CO2 and 95% air. After incubation for three hours, varying concentrations of Cas were tested in triplicate, exposing the myocytes during 24 hours to each treatment. At the end of the incubation period, the cytotoxicity of Cas was measured using the Alamar Blue viability test (Life Technologies, Carlsbad, CA, USA). Release of cytoplasmic lactate dehydrogenase (LDH) was determined using CytoTox-ONE homogeneous membrane integrity kit (Promega Madison, WI, USA). The activity of caspases 3/7 and caspase 9 was measured in cell lysates using caspase-Glo 3/7 and caspase-Glo 9 test luminescent assay (Promega, Madison, WI, USA), respectively. The cardiomyoblast cell line H9c2 (ATCC CRL-1446) was maintained using standard procedures in DMEM supplemented with 10% fetal bovine serum prior to the oxidative stress experiments.

[4] = tested on: mitochondria isolated from Cas-treated hearts; assay: Respiratory activity of mitochondria isolated from treated hearts (Clark-type oxygen electrode); set-up: species or system rat; settings: for Max. respiration: 0.08 μM CCCP; for State 4 respiration: 10 mM glutamate-malate; for Respiratory control / State 3 respiration: malate/glutamate; for State 3 respiration: after 100 μM ADP
Description: (§3) To measure mitochondrial oxygen consumption, mitochondrial membrane potential, and Ca^2+ uptake, cytochrome c samples were prepared as follows: after perfusion, heart tissue from the left ventricle was minced and homogenized in cold mitochondrial isolation medium (in mM: 125 KCl, 1 EDTA, and 10 HEPES-HCl; pH 7.3). The mitochondrial fraction was obtained by differential centrifugation using the protease Nagarse, as previously described. Mitochondrial oxygen consumption was measured using a Clark-type oxygen electrode. The experiments were carried out in respiration assay medium containing 125 KCl, 10 HEPES-HCl, and 3 KH2PO4 (in mM) with pH 7.3. State 4 respiration was measured in the presence of 10 mM glutamate-malate, and state 3 respiration was evaluated after addition of 100 μM ADP. Maximal respiration was determined with 0.08 μM of carbonyl cyanide m-chlorophenyl hydrazine (CCCP). The mitochondrial membrane potential was measured by fluorometry using 5 μM safranine. Mitochondrial Ca^2+ uptake was determined with the metalochromic indicator, Arsenazo III, or calcium green 5N (5N-CG), using a medium containing 50 μM Arsenazo or 10 μM 5N-CG, 10 mM succinate plus rotenone (0.1 μg·ml^−1), 200 μM ADP, and 0.25 μg oligomycin A. Pulses of 10 nmol Ca^+2 were added every 3 minutes to reach a Ca^+2 release due to MPT opening. Mitochondrial cytochrome c quantification from Cas-treated hearts was performed using Western blot analysis as described previously. The blots were developed with Luminata crescendo substrate (Merck Millipore, Darmstadt, Germany) and detected with VisionWorks LS-UVP Chimio System (BioSpectrum 415 Imaging System, Cambridge, UK).

[5] = tested on: mitochondria isolated from treated hearts; assay: Mitochondrial membrane potential (safranine fluorometry); set-up: species or system rat
Description: as §3, with “Mitochondrial cytochrome c quantification from Cas-treated hearts was performed using Western blot analysis as described previously. The blots were developed with Luminata crescendo substrate (Merck Millipore, Darmstadt, Germany) and detected with VisionWorks LS-UVP Chimio System (BioSpectrum 415 Imaging System, Cambridge, UK).” left out

isolated rat hearts [6] = assay: Myocardial oxygen consumption and energetic metabolites (ATP, PCr) in perfused hearts; settings: Cas at IC50, Doxo 5 μM
Description: as §1
(§4) To measure the energetic metabolites ATP, phosphocreatine (PCr), and aconitase activity at the end of the perfusion protocols, samples were prepared as follows: the hearts were removed from the perfusion system by cutting the aorta and immediately flash-frozen with liquid N2, weighed, and stored at −80°C. Afterward, the hearts were homogenized in ice-cold buffer containing 250 mM sucrose, 10 mM HEPES, and 1 mM EDTA (pH 7.4). For enzymatic determination, aliquots of the homogenate were immediately frozen in liquid nitrogen and stored at −80°C. Quantification of ATP and PCr was carried out in a HPLC system with a dual-pump gradient (Waters Chromatography, Toronto, Canada) as previously described.

[7] = tested on: mitochondrial permeability transition pore; assay: Mitochondrial Ca2+ retention capacity (MPT opening); set-up: species or system rat
Description: as §3

isolated cardiomyocytes = assay: LDH release (CytoTox-ONE); format: cell-based, rat; settings: cardiomyocytes treated at IC50 (II-gly 2 μM, Doxo 10 μM)
From the text: as §2

subcutaneous tumors = settings: nude mice ref 30; cited from earlier work
aconitase = assay: Mitochondrial aconitase activity in heart homogenates; settings: ex vivo heart, Cas at IC50, Doxo 5 μM
Description: as §4

[8] = mitochondria from CsA-III-Ea-treated hearts
[9] = mitochondria from hearts perfused with 10 μM III-Ea alone
[10] = mitochondria from treated hearts, CsA 0.5 μM added in vitro

Structure (SMILES)	increase in MitoSOX mean intensity (anion superoxide production) (H9c2 cells) [fold]	decrease of cardiac efficiency (CE) (isolated rat hearts [1]) [%]	+dP/dt × 1000 (contraction rate) (isolated rat hearts [1])	Cardiac efficiency (isolated rat hearts [1])	−dP/dt × 1000 (relaxation rate) (isolated rat hearts [1])	t 0.5, time for half-inhibition of RPP (isolated rat hearts [1]; isolated rat heart)	heart rate (HR) reduction (isolated rat hearts [1])	Max. respiration [4]	State 4 respiration [4] [nmol O min^−1·mg^−1]	Respiratory control [4]	State 3 respiration [4]	additional MVO2 to generate the same contractile force compared to control hearts (RPP/MVO2 ratio) (isolated rat hearts [6]) [fold]	change in MVO2 (isolated rat hearts [6])	decrease in ATP content (isolated rat hearts [6]) [%]	further results
CCCCCC[C@H]1C(=O)O[C@H](C)[C@H](NC(=O)c2cccc(NC=O)c2O)C(=O)O[C@@H](C)[C@@H]1OC(=O)CC(C)C [Antimycin A]	9	–	–	–	–	–	–	–	–	–	–	–	–	–	–
CC(=O)C=C(C)[O-].Cc1ccnc2c1ccc1c(C)ccnc12.O.O.O=[N+]([O-])[O-].[Cu+2] [Cas III-Ea, Aqua(4,7-dimethyl-1,10-phenanthroline)(acetylacetonate)copper(II)nitrate]	–	47	2.4 ± 0.23^∗ mmHg·s^−1	3.3 ± 0.2^∗ RPP · MVO2 ^−1	−0.8 ± 0.13^∗ mmHg·s^−1	21 ± 5.0^d min	not affected	48.3 ± 5.7^∗ nmol O min^−1·mg^−1	24.5 ± 5.4	1.5 ± 0.2^∗	37.3 ± 2.7^∗ nmol O min^−1·mg^−1	1.47	no changes	56	t 0.5 of decline of contractility (RPP) (isolated rat hearts [1]; 1 μM CsA perfused 10 min, then 10 μM III-Ea): 11.98 min; RPP reduction from baseline (isolated rat hearts [1]; at 20 min): 48%; RPP reduction from baseline (isolated rat hearts [1]; at 30 min): 97%; t 0.5 of decline of contractility (RPP) (isolated rat hearts [1]; 10 μM III-Ea alone): 9.65 min; IC50 (isolated rat hearts [1]; isolated rat heart, at 30 min perfusion): 1.3 ± 0.2 µM; oxidation state of adenine nucleotide translocase thiol groups [2]: twofold increase; IC50 [3]: 2 ± 0.4 µM; change in anion superoxide production (MitoSOX) (H9c2 cells; H9c2 intact cells, 4 or 20 μM): no change; mitochondrial membrane potential after addition of 10 μM Ca2+ [5, 8]: remained polarized; mitochondrial membrane potential after addition of 10 μM Ca2+ [5, 9]: depolarization; more calcium tolerated than mitochondria from III-Ea hearts [7, 8]: 69%; calcium retention capacity ([7]; mitochondria from CsA-III-Ea-treated hearts (1 μM CsA before 10 μM III-Ea)): 226 ± 13 nmol/mg; calcium retention capacity [7, 9]: 133 ± 14 nmol/mg; decrease of mitochondrial Ca2+ retention capacity ([7]; mitochondria from hearts treated at IC50, versus control): 50.5%; delay in the opening of MPT in the presence of CsA [7, 10]: 1.8 fold
COc1cccc2c1C(=O)c1c(O)c3c(c(O)c1C2=O)C[C@@](O)(C(=O)CO)C[C@@H]3O[C@H]1C[C@H](N)[C@H](O)[C@H](C)O1 [Doxo, Doxorubicin, reference compound]	4	55	2.1 ± 0.23^∗ mmHg·s^−1	2.8 ± 0.1^∗ RPP · MVO2 ^−1	−0.8 ± 0.18^∗ mmHg·s^−1	18.6 ± 4.0^d min	24%	25 ± 15.1^∗ nmol O min^−1·mg^−1	18 ± 2.0	1 ± 0.3^∗	25 ± 8.8^∗ nmol O min^−1·mg^−1	1.8	no changes	74	increase in LDH release compared to the control (isolated cardiomyocytes): 4.7 fold; reduction of the volume of subcutaneous tumors (subcutaneous tumors): 20%; IC50 (isolated rat hearts [1]; Rattus norvegicus, 0.5 h): 5 ± 0.3 µM; IC50 ([3]; Rattus norvegicus, Ventricular myocyte): 10 ± 0.5 µM; aconitase activity (aconitase): decreased; PCr levels (isolated rat hearts [6]): decreased; protective effect of CsA on Ca2+ retention capacity [7, 10]: 51%
